# US20250228824A1, “COMPOSITIONS AND METHODS FOR INHIBITION OF ITO AS TREATMENT FOR THE J WAVE SYNDROMES AND HYPOTHERMIA” (Lankenau Institute for Medical Research, priority 2021, published 2025)
# Assays:
# [1] = tested on: coronary-perfused canine right (RV) and left (LV) ventricular wedge models of JWS; experiment: Coronary-perfused ventricular wedge models of the J wave syndromes (NS5806 alone or with verapamil); set-up: QT interval / T wave amplitude / Epi (APD50) / Epi (APD90): unit not given here
# Experimental: Ten hearts from purpose-bred adult male mongrel dogs (20-22 kg) were acquired from Covance (Denver, PA) and another 10 hearts from purpose-bred adult male Beagle dogs (10-16 kg) were obtained from Envigo (Denver, PA). Dogs were sedated with ketamine (10 mg/kg, IM) and xylazine 2 (mg/kg, IM). Prior to euthanasia (Euthasol solution: pentobarbital sodium and phenytoin sodium; 0.22 ml/kg, IV), and heparin (human pharmaceutical grade, 1,000 U/kg, IV) were administered 3-4 min before isolation of the hearts via a left thoracotomy. Retrograde aortic perfusion of the hearts with ice-cold cardioplegic solution (modified K-H solution; 16 mM KCl) was immediately performed to rinse the coronary vasculature of blood. The hearts were then placed in a sealed container containing ice-cold cardioplegic solution and transported to our institution via private courier in an insulated package filled with icepacks.
# Transmural wedges were dissected from the base of the RV and LV. During the cannulation procedure, preparations were initially arterially perfused with cardioplegic solution. Next, the wedge preparations were placed in a tissue bath and perfused with a modified Krebs-Henseleit solution (K—H) bubbled with 95% O2/5% CO2 warmed to 37° C. The composition of K—H was (in mM): 118 NaCl, 4 KCl, 2 CaCl2, 1.2 MgSO4, 24 NaHCO3, 1.2 NaH2PO4, 2 Na Pyruvate and 10 D-Glucose. The perfusate was delivered at a constant pressure (45-50 mmHg). A transmural pseudo-ECG (ECG) was recorded using two Ag/AgCl half cells placed at ˜1 cm from the Epi (+) and Endo (−) surfaces along the same axis as the transmembrane action potential (AP) recordings. APs were simultaneously recorded from the immediate sub-Epi and M cell region (˜2-3 mm from the Endo surface) using floating glass microelectrodes. Pacing was applied to the Endo surface using bipolar silver electrodes insulated except at the tips (Basic Cycle Lengths [BCLs]: 500-2,000 ms). A detailed description of the arterially-perfused ventricular wedge preparation has been previously published.^5 ECG and AP signals were digitized and analyzed using Spike 2 for Windows (Cambridge Electronic Design, Cambridge, UK).
# We used the Ito-agonist NS5806 (5-10 μM) alone or with the calcium-channel blocker verapamil (2.5 μM) to pharmacologically mimic the effects of the ion channel genetic defects underlying ERS and BrS. These provocative agents were added to the coronary perfusate in increasing concentrations until the characteristic ECG phenotypes were unmasked, including phase 2 reentry (P2R), closely coupled premature beats (CCPBs) and/or pVT/VF. AR-787 was added to the perfusate to test its ability to suppress or prevent arrhythmogenesis.
# [2] = high doses / high plasma levels; cited from earlier work
# [3] = NS5806 5-10 μM, 3 LV wedges, BCL 800 msec
SMILES,"QT interval ([1]; AR-787 1, 10 or 50 μM, NS5806 5-10 μM, five wedges)","effect on phase 1 magnitude, AP notch and J wave ([1]; NS5806 5-10 μM in coronary perfusate)","Epi (APD50) [1, 3]","Epi (APD90) [1, 3]","J wave amplitude [1, 3]","M (APD50) [1, 3]","M (APD90) [1, 3]","Ph1 mag (% Ph0) [1, 3]","QT interval [1, 3]","T wave amplitude [1, 3]",patients developing serious GI side effects [2]
"O=C(Nc1cc(C(F)(F)F)cc(C(F)(F)F)c1)Nc1c(Br)cc(Br)cc1-c1nn[nH]n1 [NS5806, reference compound]",unaffected,increased the magnitude of phase 1,181.8 ± 10.4,215.6 ± 5.3,31.3 ± 4.6,179.5 ± 5.9,228.4 ± 7.7,40.2 ± 6.5 % Ph0,261.2 ± 4.5,17.8 ± 9.6,–
C=C[C@H]1C[N@@]2CC[C@H]1C[C@@H]2[C@@H](O)c1ccnc2ccc(OC)cc12 [quinidine],–,–,–,–,–,–,–,–,–,–,approximately 50%
